The source of these data is patent publication US9028845B2, “Chimeric immunomodulatory compounds and methods of using the same-IV” (Dynavax Technologies Corporation, priority 2001, dated 2015).

No end group written: not given here.

This series concerns human PBMCs. The experiment in a line: Human PBMC cytokine response assay (IFN-γ and IFN-α in cell-free medium by ELISA), with or without cPLGA.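 As to IFN-α (pg/ml) mean: 20 µg/mL compound for 24 hours.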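 As to IFN-γ (pg/ml) mean: 20 µg/mL compound for 24 hours.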 The series is classed as cell-based. As to conditions: for immunomodulatory activity (IFN-γ / IFN-α secretion), in words: used alone (no cPLGA).
The mark [1] stands for this setting: mean of donors 28185-28188, Table 15.
The mark [2] stands for this setting: mean of donors 28057-28060, Table 16.
Setting [3] is: Table 26, mean of donors 28313-28316.
Setting [4] is: mean of donors 110, 112, 119, 120, Table 14.
Setting [5] is: Table 24, mean of donors 28234-28237.

On to “5′-ACGTTCG-3′-HEG-5′-AGATGAT-3′-HEG-5′-TCGTCGA-3′ [Compound C-58]”, for which the IFN-α is, setting by setting: (Table 13, donor 28156) 13 pg/mL; (Table 13, donor 28157) 30 pg/mL; (Table 13, donor 28158) 29 pg/mL; (Table 13, donor 28159) 23 pg/mL. Besides, the IFN-γ by setting is: (Table 13, donor 28156) 404 pg/mL; (Table 13, donor 28157) 288 pg/mL; (Table 13, donor 28158) 59 pg/mL; (Table 13, donor 28159) 84 pg/mL. The IFN-α mean (Table 13, mean of donors) came out at 24 pg/mL. For the same substance, for the setting “Table 13, mean of donors”, the IFN-γ mean amounted to 209 pg/mL.
For 5′-TCG-3′-HEG-5′-T-3′ [Compound C-68], the “immunomodulatory activity (IFN-γ / IFN-α secretion), in words” value is on record as “neither CIC was active on its own”. Under “donor 28185, Table 15”, the “IFN-a” value was 4 pg/mL and the “IFN-g” value was 0 pg/mL. Where the note is “donor 28186, Table 15”, the “IFN-a” value worked out at 13 pg/mL and the “IFN-g” value turned out to be 4 pg/mL. Where the note is “donor 28187, Table 15”, the “IFN-a” value was 25 pg/mL and the “IFN-g” value amounted to 2 pg/mL. For the same substance, for the setting “donor 28188, Table 15”, the “IFN-a” value worked out at 4 pg/mL and the “IFN-g” value turned out to be 1 pg/mL. In addition, under setting [1], the “IFN-a (pg/ml) mean” value stood at 11 pg/mL and the “IFN-g (pg/ml) mean” value amounted to 2 pg/mL. Further, for the setting “mean ×2, Table 15”, the “IFN-a (pg/ml) ×2” value worked out at 23 pg/mL. For the setting “mean ×4, Table 15”, the “IFN-g (pg/ml) ×4” value stood at 7 pg/mL.
Regarding “5′-TCGTCGA-3′-HEG-5′-AGATGAT-3′-HEG-5′-ACGTTCG-3′ [Compound C-56]”, the “immunomodulatory activity (IFN-γ / IFN-α secretion), in words” value is “most active CICs”. For the setting “Table 13, donor 28156”, this substance showed an IFN-α of 98 pg/mL and an IFN-γ of 1223 pg/mL. Under “Table 13, donor 28157”, this substance gave an IFN-α of 415 pg/mL and an IFN-γ of 543 pg/mL. Besides, where the note is “Table 13, donor 28158”, the IFN-α is 57 pg/mL and the IFN-γ worked out at 203 pg/mL. Under “Table 13, donor 28159”, this substance returned an IFN-α of 131 pg/mL and an IFN-γ of 563 pg/mL. Under “Table 13, mean of donors”, this substance registered an IFN-α mean of 175 pg/mL and an IFN-γ mean of 633 pg/mL.
Take “5′-TCGTCG-3′-(HME)15-5′-T-3′ [Compound C-14]”: the “activity when formulated with cPLGA, in words” value was “all had significant activity when formulated on cPLGA” and the “immunomodulatory activity (IFN-γ / IFN-α secretion), in words” value was “None of the CICs was active when used alone”. For the setting “donor 28057, Table 16”, the “IFN-α” value amounted to 0 pg/mL and the “IFN-γ” value worked out at 3 pg/mL. Where the note is “donor 28058, Table 16”, the “IFN-α” value worked out at 0 pg/mL and the “IFN-γ” value worked out at 1 pg/mL. Besides, for the setting “donor 28059, Table 16”, the “IFN-α” value turned out to be 0 pg/mL and the “IFN-γ” value turned out to be 1 pg/mL. Moreover, for the setting “donor 28060, Table 16”, the “IFN-α” value came out at 0 pg/mL and the “IFN-γ” value came out at 3 pg/mL. In addition, under setting [2], the “IFN-α (pg/ml) mean” value was found to be 0 pg/mL and the “IFN-γ (pg/ml) mean” value was determined as 2 pg/mL.
Turning to “(5′-TCGACGT-3′-HEG)x-Ficoll400 (X range = 150-250, ave. 185) See example 49 (not fully specified (C-terminus); cysteine pairing not given here; also: about 185 copies attached to Ficoll400) [Compound C-137]”, the “immunomodulatory activity (IFN-γ / IFN-α secretion), in words” value was “striking activity in the cytokine response assays”. Where the note is “Table 26, donor 28313”, this substance registered an IFN-a of 3612 pg/mL and an IFN-g of 1 pg/mL. For the setting “Table 26, donor 28314”, this substance yielded an IFN-a of 5468 pg/mL and an IFN-g of 22 pg/mL. Also, for the setting “Table 26, donor 28315”, the IFN-a is 624 pg/mL and the IFN-g was found to be 13 pg/mL. Where the note is “Table 26, donor 28316”, this substance registered an IFN-a of 4000 pg/mL and an IFN-g of 54 pg/mL. In addition, for the setting “Table 26, mean multiplied by 4”, the “IFN-g mean ×4” value came to 90 pg/mL. In addition, under setting [3], the IFN-a mean came out at 3426 pg/mL and the IFN-g mean amounted to 22 pg/mL. Besides, where the note is “used alone”, the “IFN-α induction, in words” value was “significant stimulation of IFN-α”.
For “5′-TCGTCGA-3′-HEG-5′-TCGTCGA-3′ [Compound C-39]”, the “activity when formulated with cPLGA, in words” value is recorded as “significant activity when formulated with cPLGA” and the “immunomodulatory activity (IFN-γ / IFN-α secretion), in words” value was “active when used alone”. For the same substance, for the setting “Table 10, donor 28042”, the IFN-α is 31 pg/mL and the IFN-γ stood at 343 pg/mL. Where the note is “Table 10, donor 28043”, the IFN-α is 187 pg/mL and the IFN-γ is 488 pg/mL. Moreover, where the note is “Table 10, donor 28044”, the IFN-α came to 46 pg/mL and the IFN-γ came out at 281 pg/mL. Under “Table 10, donor 28045”, the IFN-α turned out to be 36 pg/mL and the IFN-γ amounted to 137 pg/mL. Where the note is “Table 10, mean of donors”, this substance displayed an IFN-α mean of 75 pg/mL and an IFN-γ mean of 312 pg/mL. For the same substance, where the note is “donor 110, Table 14”, the “IFN-α” value stood at 674 pg/mL and the “IFN-γ” value turned out to be 604 pg/mL. Besides, where the note is “donor 112, Table 14”, the “IFN-α” value was 26 pg/mL and the “IFN-γ” value turned out to be 116 pg/mL. Under “donor 119, Table 14”, the “IFN-α” value amounted to 444 pg/mL and the “IFN-γ” value was 108 pg/mL. In addition, under “donor 120, Table 14”, the “IFN-α” value amounted to 250 pg/mL and the “IFN-γ” value amounted to 32 pg/mL. Under setting [4], the “IFN-α (pg/ml) mean” value came to 349 pg/mL and the “IFN-γ (pg/ml) mean” value turned out to be 215 pg/mL.
On to “(5′-TCGAACGTTCGA-3′ (SEQ ID NO: 155)-HEG)3-trebler-HEG-5′-T-3′ (three copies HEG-trebler branched, HEG-T, chemistry not fully specified) [Compound C-175]”, for which the IFN-α is, setting by setting: (Example 58, 0.8 ug/ml, donor 1) 21783 pg/mL; (Example 58, 0.8 ug/ml, donor 2) 16605 pg/mL; (Example 58, 0.8 ug/ml, donor 3) 851 pg/mL; (Example 58, 0.8 ug/ml, donor 4) 2874 pg/mL; (Example 58, 4 ug/ml, donor 1) 7134 pg/mL; (Example 58, 4 ug/ml, donor 2) 6779 pg/mL. The IFN-α is, setting by setting: (Example 58, 4 ug/ml, donor 3) 906 pg/mL; (Example 58, 4 ug/ml, donor 4) 1951 pg/mL; (Example 58, 20 ug/ml, donor 1) 2250 pg/mL; (Example 58, 20 ug/ml, donor 2) 732 pg/mL; (Example 58, 20 ug/ml, donor 3) 52 pg/mL; (Example 58, 20 ug/ml, donor 4) 52 pg/mL. Further, the IFN-α mean runs as follows: (Example 58, 0.8 ug/ml, mean of four individuals) 10528 pg/mL; (Example 58, 4 ug/ml, mean of four individuals) 4193 pg/mL; (Example 58, 20 ug/ml, mean of four individuals) 771 pg/mL. Also, the “IFN-α from human PBMC compared with parent oligonucleotide P-17, in words” value (low doses (e.g., 0.8 ug/ml), four individuals) is listed as “induce significantly more IFN-α”.
Turning to “5′-TCCA-3′-C3-5′-TGACGTT-3′-C3-5′-CCTGATGCT-3′ [Compound C-88]”, the IFN-α came to 95 pg/mL (Table 24, donor 28234); 16 pg/mL (Table 24, donor 28235); 212 pg/mL (Table 24, donor 28236); 111 pg/mL (Table 24, donor 28237). In addition, the IFN-γ was determined as 5 pg/mL (Table 24, donor 28234); 21 pg/mL (Table 24, donor 28235); 17 pg/mL (Table 24, donor 28236); 477 pg/mL (Table 24, donor 28237). Further, the IFN-α mean under setting [5] came to 109 pg/mL. For the same substance, the IFN-γ mean under setting [5] came out at 130 pg/mL.
As for “5′-TCGTCGA-3′-HEG-5′-ACGTTCG-3′-HEG-5′-GGGGGG-3′ [Compound C-49]”, the IFN-α turned out to be 30 pg/mL (Table 11, donor 28042); 8 pg/mL (Table 11, donor 28043); 100 pg/mL (Table 11, donor 28044); 88 pg/mL (Table 11, donor 28045). Moreover, the IFN-γ (Table 11, donor 28042) was determined as 367 pg/mL; the IFN-γ (Table 11, donor 28043) stood at 433 pg/mL; the IFN-γ (Table 11, donor 28044) was 767 pg/mL; the IFN-γ (Table 11, donor 28045) came to 353 pg/mL. This substance had an IFN-α mean (Table 11, mean of donors) of 57 pg/mL. The IFN-γ mean (Table 11, mean of donors) amounted to 480 pg/mL.
